Assay results as given in PMC5218480 (PLoS ONE, 2017).

System: MV-4-11 cells
Assay: Gene expression microarray analysis (Affymetrix PrimeView) and GSEA
Type: cell-based, human
Design: RFU PODN (11730768_x_at) / Fold change /veh PODN (11730768_x_at) / RFU LINC00158 (11744669_a_at) / Fold change /veh LINC00158 (11744669_a_at) / RFU DUSP10 (11751237_a_at) / Fold change /veh DUSP10 (11751237_a_at) / RFU ID3 (11757404_x_at) / Fold change /veh ID3 (11757404_x_at) / RFU PLEKHG5 (11737974_s_at) / Fold change /veh PLEKHG5 (11737974_s_at) / RFU LRRC4B (11730491_at) / Fold change /veh LRRC4B (11730491_at) / RFU GIMAP4 (11747438_a_at) / Fold change /veh GIMAP4 (11747438_a_at) / RFU KRT8 (11758183_x_at) / Fold change /veh KRT8 (11758183_x_at) / RFU CNN1 (11734310_a_at) / Fold change /veh CNN1 (11734310_a_at) / RFU VPS37D (11726825_at) / Fold change /veh VPS37D (11726825_at) / RFU C10orf10 (11716522_x_at) / Fold change /veh C10orf10 (11716522_x_at) / RFU KIR2DL2 /// KIR2DL4 /// KIR2DL5A /// KIR2DL5B /// KIR2DS1 /// KIR2DS2 /// KIR2DS3 /// KIR2DS4 /// KIR3DL3 /// KIR3DL3 /// KIR3DS1 (11738374_at) / Fold change /veh KIR2DL2 /// KIR2DL4 /// KIR2DL5A /// KIR2DL5B /// KIR2DS1 /// KIR2DS2 /// KIR2DS3 /// KIR2DS4 /// KIR3DL3 /// KIR3DL3 /// KIR3DS1 (11738374_at) / RFU C1QL1 (11718748_at) / Fold change /veh C1QL1 (11718748_at) / RFU TMPRSS4 (11747572_a_at) / Fold change /veh TMPRSS4 (11747572_a_at) / RFU HAMP (11756126_x_at) / Fold change /veh HAMP (11756126_x_at) / RFU RNFT2 (11725882_a_at) / Fold change /veh RNFT2 (11725882_a_at) / RFU NR4A2 (11747474_a_at) / Fold change /veh NR4A2 (11747474_a_at) / RFU ABCC12 (11746883_a_at) / Fold change /veh ABCC12 (11746883_a_at) / RFU TMEM136 (11760407_x_at) / Fold change /veh TMEM136 (11760407_x_at) / RFU CLDN22 /// WWC2 (11732394_at) / Fold change /veh CLDN22 /// WWC2 (11732394_at) / RFU HLA-DPB1 (11760878_x_at) / Fold change /veh HLA-DPB1 (11760878_x_at) / RFU SPINT1 (11716480_a_at) / Fold change /veh SPINT1 (11716480_a_at) / RFU GAP43 (11754022_s_at) / Fold change /veh GAP43 (11754022_s_at) / RFU A4GNT (11735810_at) / Fold change /veh A4GNT (11735810_at) / RFU PRB3 (11715151_x_at) / Fold change /veh PRB3 (11715151_x_at) / RFU TUBB4B (11761932_at) / Fold change /veh TUBB4B (11761932_at) / RFU CAPN14 (11732068_a_at) / Fold change /veh CAPN14 (11732068_a_at) / RFU TMCC2 (11721928_a_at) / Fold change /veh TMCC2 (11721928_a_at) / RFU IRGQ (11745062_a_at) / Fold change /veh IRGQ (11745062_a_at) / RFU FAM174B (11720279_a_at) / Fold change /veh FAM174B (11720279_a_at) / RFU TMPRSS4 (11748680_a_at) / Fold change /veh TMPRSS4 (11748680_a_at) / RFU FAM212B (11763350_a_at) / Fold change /veh FAM212B (11763350_a_at) / RFU PLEKHG5 (11743358_a_at) / Fold change /veh PLEKHG5 (11743358_a_at) / RFU ZSCAN30 (11745921_a_at) / Fold change /veh ZSCAN30 (11745921_a_at) / RFU CMKLR1 (11741424_a_at) / Fold change /veh CMKLR1 (11741424_a_at) / RFU LOC101060620 /// MAPK8IP1 (11723275_at) / Fold change /veh LOC101060620 /// MAPK8IP1 (11723275_at) / RFU SPTSSB (11747773_x_at) / Fold change /veh SPTSSB (11747773_x_at) / RFU PRSS12 (11739890_at) / Fold change /veh PRSS12 (11739890_at) / RFU BIN1 (11741810_x_at) / Fold change /veh BIN1 (11741810_x_at) / RFU WNT11 (11732464_a_at) / Fold change /veh WNT11 (11732464_a_at) / RFU C10orf10 (11716521_a_at) / Fold change /veh C10orf10 (11716521_a_at) / RFU C5orf56 (11738089_at) / Fold change /veh C5orf56 (11738089_at) / RFU CYB561 (11721691_x_at) / Fold change /veh CYB561 (11721691_x_at) / RFU ANKRD19P (11752326_a_at) / Fold change /veh ANKRD19P (11752326_a_at) / RFU OR2T12 /// OR2T33 /// OR2T8 (11738714_s_at) / Fold change /veh OR2T12 /// OR2T33 /// OR2T8 (11738714_s_at) / RFU VCAN (11748164_a_at) / Fold change /veh VCAN (11748164_a_at) / RFU JSRP1 (11732532_at) / Fold change /veh JSRP1 (11732532_at) / RFU KRTAP10-11 (11738290_x_at) / Fold change /veh KRTAP10-11 (11738290_x_at) / RFU MYO3A (11730013_a_at) / Fold change /veh MYO3A (11730013_a_at) / RFU EBF3 (11725865_a_at) / Fold change /veh EBF3 (11725865_a_at) / RFU CAMK2N1 (11719241_x_at) / Fold change /veh CAMK2N1 (11719241_x_at) / RFU C5orf56 (11738088_a_at) / Fold change /veh C5orf56 (11738088_a_at) / RFU OLFML3 (11715873_a_at) / Fold change /veh OLFML3 (11715873_a_at) / RFU LOC100653217 /// NTM (11731650_a_at) / Fold change /veh LOC100653217 /// NTM (11731650_a_at) / RFU MAPK11 (11762145_a_at) / Fold change /veh MAPK11 (11762145_a_at) / RFU FIZ1 (11724087_x_at) / Fold change /veh FIZ1 (11724087_x_at) / RFU OASL (11726364_x_at) / Fold change /veh OASL (11726364_x_at) / RFU SOX15 (11748057_x_at) / Fold change /veh SOX15 (11748057_x_at) / RFU CD79A (11719716_a_at) / Fold change /veh CD79A (11719716_a_at) / RFU HIST1H1D (11736915_at) / Fold change /veh HIST1H1D (11736915_at) / RFU CASKIN2 (11723855_a_at) / Fold change /veh CASKIN2 (11723855_a_at) / RFU LOC730098 (11760151_x_at) / Fold change /veh LOC730098 (11760151_x_at) / RFU OR4N2 (11742367_at) / Fold change /veh OR4N2 (11742367_at) / RFU PRRT2 (11749266_a_at) / Fold change /veh PRRT2 (11749266_a_at) / RFU SNX32 (11753110_a_at) / Fold change /veh SNX32 (11753110_a_at) / RFU CDHR5 (11726645_a_at) / Fold change /veh CDHR5 (11726645_a_at) / RFU RCAN1 (11760418_a_at) / Fold change /veh RCAN1 (11760418_a_at) / RFU FAM167A (11723789_a_at) / Fold change /veh FAM167A (11723789_a_at) / RFU FAM26E (11764081_at) / Fold change /veh FAM26E (11764081_at) / RFU ISYNA1 (11749810_s_at) / Fold change /veh ISYNA1 (11749810_s_at) / RFU ACY1 (11761880_at) / Fold change /veh ACY1 (11761880_at) / RFU 11764098_at / Fold change /veh 11764098_at / RFU SAMD14 (11745864_x_at) / Fold change /veh SAMD14 (11745864_x_at) / RFU NPB (11741838_a_at) / Fold change /veh NPB (11741838_a_at) / RFU TMPRSS6 (11731388_a_at) / Fold change /veh TMPRSS6 (11731388_a_at) / RFU KRTAP10-2 (11738614_at) / Fold change /veh KRTAP10-2 (11738614_at) / RFU ARHGAP8 /// PRR5-ARHGAP8 (11727945_x_at) / Fold change /veh ARHGAP8 /// PRR5-ARHGAP8 (11727945_x_at) / RFU KRTAP5-7 /// NADSYN1 (11734609_at) / Fold change /veh KRTAP5-7 /// NADSYN1 (11734609_at) / RFU RASL12 (11751679_a_at) / Fold change /veh RASL12 (11751679_a_at) / RFU CDKN2B (11736163_a_at) / Fold change /veh CDKN2B (11736163_a_at) / RFU PRF1 (11729649_at) / Fold change /veh PRF1 (11729649_at) / RFU, ZNF638 /// ZNF638-IT1 / Fold change vs veh, ZNF638 /// ZNF638-IT1 / RFU, PANK3 / Fold change vs veh, PANK3 / RFU, SH3YL1 / Fold change vs veh, SH3YL1 / RFU, ZEB2 / Fold change vs veh, ZEB2 / RFU, NRIP1 / Fold change vs veh, NRIP1 / RFU, PTTG1IP / Fold change vs veh, PTTG1IP / RFU, CAPN2 / Fold change vs veh, CAPN2 / RFU, MED14 / Fold change vs veh, MED14 / RFU, SNORA58 / Fold change vs veh, SNORA58 / RFU, C1orf63 / Fold change vs veh, C1orf63 / RFU, LRRFIP1 / Fold change vs veh, LRRFIP1 / RFU, NDUFAF7 / Fold change vs veh, NDUFAF7 / RFU, SLC12A2 / Fold change vs veh, SLC12A2 / RFU, IBTK / Fold change vs veh, IBTK / RFU, ESF1 / Fold change vs veh, ESF1 / Fold change vs veh, TMEM50B / RFU, TAOK1 / Fold change vs veh, TAOK1 / RFU, ACBD3 / Fold change vs veh, ACBD3 / RFU, TMA16 / Fold change vs veh, TMA16 / RFU, RWDD3 / Fold change vs veh, RWDD3 / RFU, BCAT1 / Fold change vs veh, BCAT1 / RFU, EDEM3 / Fold change vs veh, EDEM3 / RFU, TMEM33 / Fold change vs veh, TMEM33 / RFU, WDR75 / Fold change vs veh, WDR75 / RFU, AHCTF1 / Fold change vs veh, AHCTF1 / RFU, TFRC / Fold change vs veh, TFRC / RFU, ZDHHC17 / Fold change vs veh, ZDHHC17 / RFU, NOM1 / Fold change vs veh, NOM1 / RFU, ARL8B / Fold change vs veh, ARL8B / RFU, ZBTB11 / Fold change vs veh, ZBTB11 / RFU, TAMM41 / Fold change vs veh, TAMM41 / RFU, KIAA1704 /// LOC100996395 / Fold change vs veh, KIAA1704 /// LOC100996395 / RFU, ING1 / Fold change vs veh, ING1 / RFU, TRMT61B / Fold change vs veh, TRMT61B / RFU, FUBP3 / Fold change vs veh, FUBP3 / RFU, TP53 / Fold change vs veh, TP53 / RFU, TNKS2 / Fold change vs veh, TNKS2 / RFU, ZFP14 / Fold change vs veh, ZFP14 / RFU, ACTR2 / Fold change vs veh, ACTR2 / RFU, PPP3R1 / Fold change vs veh, PPP3R1 / RFU, PIK3R1 / Fold change vs veh, PIK3R1 / RFU, HNRNPA1 / Fold change vs veh, HNRNPA1 / RFU, RNF170 / Fold change vs veh, RNF170 / RFU, ZNF28 / Fold change vs veh, ZNF28 / RFU, RNGTT / Fold change vs veh, RNGTT / RFU, OGT / Fold change vs veh, OGT / RFU, BRD1 / Fold change vs veh, BRD1 / RFU, MARS / Fold change vs veh, MARS / RFU, ZNF655 / Fold change vs veh, ZNF655 / RFU, FAHD1 / Fold change vs veh, FAHD1 / RFU, BDP1 / Fold change vs veh, BDP1 / RFU, LRRCC1 / Fold change vs veh, LRRCC1 / RFU, ARID1A / Fold change vs veh, ARID1A / RFU, ZNF146 / Fold change vs veh, ZNF146 / RFU, ZNF330 / Fold change vs veh, ZNF330 / RFU, GPN3 / Fold change vs veh, GPN3 / RFU, C9orf123 / Fold change vs veh, C9orf123 / RFU, N4BP2L2 / Fold change vs veh, N4BP2L2 / RFU, ARFIP1 / Fold change vs veh, ARFIP1 / RFU, FAM179B / Fold change vs veh, FAM179B / RFU, BCL10 / Fold change vs veh, BCL10 / RFU, UHRF1BP1L / Fold change vs veh, UHRF1BP1L / RFU, BET1 / Fold change vs veh, BET1 / RFU, CNOT2 / Fold change vs veh, CNOT2 / RFU, ZNF268 / Fold change vs veh, ZNF268 / Fold change vs veh, ZNF507 / RFU, DGCR2 / Fold change vs veh, DGCR2 / RFU, WDSUB1 / Fold change vs veh, WDSUB1 / Fold change vs veh, HSP90B1 /// MIR3652 / RFU, ADSS / Fold change vs veh, ADSS / RFU, GK / Fold change vs veh, GK / RFU, ZNF148 / Fold change vs veh, ZNF148 / RFU, TAF9 / Fold change vs veh, TAF9 / RFU, SLC1A5 / Fold change vs veh, SLC1A5 / RFU, SLMO2 / Fold change vs veh, SLMO2 / RFU, ABCC4 / Fold change vs veh, ABCC4 / RFU, LOC101060439 /// RAP1B / Fold change vs veh, LOC101060439 /// RAP1B / RFU, RFX7 / Fold change vs veh, RFX7 / RFU, GTPBP10 / Fold change vs veh, GTPBP10 / RFU, CNEP1R1 / Fold change vs veh, CNEP1R1 / RFU, BIVM-ERCC5 /// ERCC5 / Fold change vs veh, BIVM-ERCC5 /// ERCC5 / RFU, ILF3 / Fold change vs veh, ILF3 / RFU 11762660_at / Fold change /veh 11762660_at / RFU VCAN (11757783_s_at) / Fold change /veh VCAN (11757783_s_at) / RFU DDX43 (11728927_at) / Fold change /veh DDX43 (11728927_at) / RFU KRT8 (11758188_x_at) / Fold change /veh KRT8 (11758188_x_at) / RFU NKD1 (11759106_at) / Fold change /veh NKD1 (11759106_at) / RFU SRD5A1 (11742802_a_at) / Fold change /veh SRD5A1 (11742802_a_at) / RFU TPSAB1 /// TPSB2 (11721975_s_at) / Fold change /veh TPSAB1 /// TPSB2 (11721975_s_at) / RFU GSTM3 (11746129_a_at) / Fold change /veh GSTM3 (11746129_a_at) / RFU IL23R (11737362_x_at) / Fold change /veh IL23R (11737362_x_at) / RFU TMEM51 (11727254_a_at) / Fold change /veh TMEM51 (11727254_a_at) / RFU PIWIL2 (11732686_x_at) / Fold change /veh PIWIL2 (11732686_x_at) / RFU ORM1 (11744905_x_at) / Fold change /veh ORM1 (11744905_x_at) / RFU CCDC152 (11743942_at) / Fold change /veh CCDC152 (11743942_at) / RFU ECM1 (11717891_a_at) / Fold change /veh ECM1 (11717891_a_at) / RFU IL23R (11748794_a_at) / Fold change /veh IL23R (11748794_a_at) / RFU TNFAIP8L3 (11732012_x_at) / Fold change /veh TNFAIP8L3 (11732012_x_at) / RFU MBOAT4 (11741988_at) / Fold change /veh MBOAT4 (11741988_at) / RFU 11764193_at / Fold change /veh 11764193_at / RFU TMEM53 (11763286_at) / Fold change /veh TMEM53 (11763286_at) / RFU MAGEB2 (11727129_at) / Fold change /veh MAGEB2 (11727129_at) / RFU TMEM200A (11744735_a_at) / Fold change /veh TMEM200A (11744735_a_at) / RFU CCDC152 (11751479_a_at) / Fold change /veh CCDC152 (11751479_a_at) / RFU FAM211A (11726209_a_at) / Fold change /veh FAM211A (11726209_a_at) / RFU RGS16 (11746705_a_at) / Fold change /veh RGS16 (11746705_a_at) / RFU VCAN (11755009_s_at) / Fold change /veh VCAN (11755009_s_at) / RFU RHOB (11743442_s_at) / Fold change /veh RHOB (11743442_s_at) / RFU RGS16 (11720943_a_at) / Fold change /veh RGS16 (11720943_a_at) / RFU RGS16 (11720944_at) / Fold change /veh RGS16 (11720944_at) / RFU, VPS4B / Fold change vs veh, VPS4B / RFU, CREB1 / Fold change vs veh, CREB1 / RFU, DNAJC13 / Fold change vs veh, DNAJC13 / RFU, GNAQ / Fold change vs veh, GNAQ / RFU, CDK5R1 / Fold change vs veh, CDK5R1 / RFU, ZRANB3 / Fold change vs veh, ZRANB3 / RFU, CUL4A / Fold change vs veh, CUL4A / RFU, CCNY / Fold change vs veh, CCNY / RFU, UFL1 / Fold change vs veh, UFL1 / RFU, COG3 / Fold change vs veh, COG3 / RFU, DIAPH2 / Fold change vs veh, DIAPH2 / RFU, SKA2 / Fold change vs veh, SKA2 / RFU, AFF3 / Fold change vs veh, AFF3 / RFU, LMF1 / Fold change vs veh, LMF1 / RFU, IPO11 / Fold change vs veh, IPO11 / RFU, DFFB / Fold change vs veh, DFFB / RFU, FOXP1 / Fold change vs veh, FOXP1 / RFU, CARD8 / Fold change vs veh, CARD8 / RFU, STRN3 / Fold change vs veh, STRN3 / RFU, ADK / Fold change vs veh, ADK / RFU, RASSF2 / Fold change vs veh, RASSF2 / RFU, WIPF1 / Fold change vs veh, WIPF1 / RFU, LARP1B / Fold change vs veh, LARP1B / RFU, RASA1 / Fold change vs veh, RASA1 / RFU, RB1 / Fold change vs veh, RB1 / RFU, PPFIA1 / Fold change vs veh, PPFIA1 / RFU, MAT2A / Fold change vs veh, MAT2A / RFU, CCT5 / Fold change vs veh, CCT5 / RFU, WDR92 / Fold change vs veh, WDR92 / RFU, CUX1 / Fold change vs veh, CUX1 / RFU, TTC7A / Fold change vs veh, TTC7A / RFU, TMEM135 / Fold change vs veh, TMEM135 / RFU, DEPTOR / Fold change vs veh, DEPTOR / RFU, CPM / Fold change vs veh, CPM / RFU, DNAJB6 / Fold change vs veh, DNAJB6 / RFU, CACNA2D3 / Fold change vs veh, CACNA2D3 / RFU, DTX4 / Fold change vs veh, DTX4 / RFU, TFCP2 / Fold change vs veh, TFCP2 / RFU, GMCL1 /// GMCL1P1 / Fold change vs veh, GMCL1 /// GMCL1P1 / RFU, AEBP2 / Fold change vs veh, AEBP2 / RFU, SNHG1 /// SNORD22 /// SNORD25 /// SNORD26 /// SNORD27 /// SNORD28 /// SNORD29 /// SNORD31 / Fold change vs veh, SNHG1 /// SNORD22 /// SNORD25 /// SNORD26 /// SNORD27 /// SNORD28 /// SNORD29 /// SNORD31 / Fold change (Aza/veh), C12orf56 (ProbeSet 11735607_a_at) / Fold change (ACY-1035/veh), C12orf56 (ProbeSet 11735607_a_at) / Fold change (Aza/veh), FGFR1OP (ProbeSet 11751329_s_at) / Fold change (ACY-1035/veh), FGFR1OP (ProbeSet 11751329_s_at) / Fold change (Aza/veh), VPS36 (ProbeSet 11739960_a_at) / Fold change (ACY-1035/veh), VPS36 (ProbeSet 11739960_a_at) / RFU SYPL1 (11715823_x_at) / Fold change /veh SYPL1 (11715823_x_at) / RFU IGFBP7 (11715501_s_at) / Fold change /veh IGFBP7 (11715501_s_at) / RFU REEP3 (11722064_at) / Fold change /veh REEP3 (11722064_at) / RFU IGLL1 (11728026_x_at) / Fold change /veh IGLL1 (11728026_x_at): dose or concentration left out as unconfirmed
Conditions: MV-4-11 cells, 48 hours

## Nc1ncn([C@@H]2O[C@H](CO)[C@@H](O)[C@H]2O)c(=O)n1 [azacitidine]
  RFU OLFML3 (11715873_a_at): 10.99 RFU
